# US8324227B2, “Thieno[2,3-D]-pyrimidin-4(3H)-one compounds with antifungal properties and process thereof” (FDC Limited, priority 2008, dated 2012)
# How the values were obtained:
# Test in all cases: Antifungal susceptibility, MIC by broth macro-dilution method
# Settings in all cases: end points after 48 hours, NI till x = no inhibition up to x
# C. albicans (ATCC 24433) = format: cell-based, Candida albicans
# Protocol: (§1) In vitro evaluation of antifungal activity was performed by determining the minimum inhibitory concentration (MIC). Anti-fungal susceptibility testing of these anti-fungal compounds was done by broth dilution method using RPMI 1640 medium with MOPS buffer. Known anti-fungal agents like fluconazole and amphotericin-B were used as positive control. End points were determined after 48 hours visually and by using spectrophotometer wherever necessary. Different dilutions were, tried and various sets of experiments performed.
# A. niger (ATCC 16404) = format: cell-based, Aspergillus niger
# Protocol: as §1
# [1] = system: F. proliferatum (ATCC 10052); format: cell-based, Fusarium proliferatum
# Protocol: as §1
# [2] = RPMI 1640 medium with MOPS buffer
"MIC (C. albicans (ATCC 24433); Candida albicans, ATCC24433, RPMI 1640 medium with MOPS buffer, read-out: MIC against fungi, C. albicans (ATCC 24433))","MIC (A. niger (ATCC 16404); Aspergillus niger, ATCC16404, RPMI 1640 medium with MOPS buffer, read-out: MIC against fungi, A. niger (ATCC 16404))","MIC ([1]; Fusarium proliferatum, ATCC10052, RPMI 1640 medium with MOPS buffer, read-out: MIC against fungi, F. proliferatum (ATCC 10052))","MIC against fungi, C. albicans (ATCC 24433) (C. albicans (ATCC 24433); [2])","MIC against fungi, A. niger (ATCC 16404) (A. niger (ATCC 16404); [2])","MIC against fungi, F. proliferatum (ATCC 10052) [1, 2]",SMILES
0.25 to 1 µg/mL,64 to 128 µg/mL,> 128 µg/mL,–,–,–,"OC(Cn1cncn1)(Cn1cncn1)c1ccc(F)cc1F [Fluconazole, reference compound]"
–,–,–,0.25 to 0.5 µg/mL,NI till 2 μg/ml,NI till 2 μg/ml,"O=c1c2c3c(sc2ncn1CC(O)(Cn1cncn1)c1ccc(F)cc1F)CCC3 (stereo not drawn) [Compound 1-A07, 3-[2-(2,4-Difluorophenyl)-2-hydroxy-3-[1,2,4]-triazol-1-yl-propyl]-3,5,6,7-tetrahydrocyclopenta[4,5]thieno[2,3-d]pyrimidin-4(3H)-one]"
